Test results as given in patent US10611731B2, “5-methyl-6-phenyl-4,5-dihydro-2H-pyridazin-3-one derivative” (OTSUKA PHARMACEUTICAL CO., LTD., priority 2016, dated 2020).
Where two headings read alike, the source gives them in different places.

System: human childhood brain tumor cell lines (PFSK-1)
Test: Growth inhibitory activity against PFSK-1 cells (WST-8, Cell Counting Kit-8)
Type: cell-based
Conditions: 3 days incubation with test compound, WST-8 OD 450/630 nm, read-out: IC50 (concentration inhibiting 50% of the cell growth)
Description: The growth inhibitory activity against human childhood brain tumor cell lines (PFSK-1) was measured with WST-8 reagent [2-(2-methoxy-4-nitrophenyl)-3-(4-nitrophenyl)-5-(2,4-disulfophenyl)-2H-tetrazolium monosodium salt, Cell Counting Kit-8™], according to the method described in Tominaga, H. et al., Anal. Commun., 1999, 36, 47-50. Briefly, PFSK-1 was seeded in 96-well microplate at 100 μL/well with Roswell Park Memorial Institute (RPMI) 1640 medium containing 10% fetal bovine serum (FBS), and the cells were incubated in the presence of 5% carbon dioxide (CO2) at 37° C. for 24 hours. 50 μL of each test compound diluted with the medium was added to each well, and then the cells were incubated further for 3 days. After the incubation, 15 μL of Cell Counting Kit-8™ was added to each well, and the cells were incubated for one and half hours. Then, optical density (OD) values at measurement wavelength 450 nm and reference wavelength 630 nm were measured and the difference thereof was calculated. From the calculated difference, the OD value difference (at measurement wavelength 450 nm and reference wavelength 630 nm) of the control well which includes no cell was subtracted to afford cell-growth activity in each well.
The cell growth inhibitory activity of each test compound was calculated by comparing the cell-growth activity with each test compound to the cell-growth activity without any test compound (control), and each IC50 (nM) which is the concentration inhibiting 50% of the cell growth was calculated.

**Q.** CC1CC(=O)NN=C1c1ccc(OC[C@H]2C[C@H]2CO)c(Cl)c1F (relative stereo) [Example 154, 6-(3-Chloro-2-fluoro-4-{[(1S*,2R*)-2-(hydroxymethyl)cyclopropyl]methoxy}phenyl)-5-methyl-4,5-dihydro-2H-pyridazin-3-one] was tested. Which IC50 (Homo sapiens, 72 h) did it give?
**A.** 2.9 nM

**Q.** For Cc1cc(C2=NNC(=O)CC2C)cc(Cl)c1OC[C@H]1C[C@H]1CO (relative stereo) [Example 155, 6-(3-Chloro-4-{[(1 S*,2R*)-2-(hydroxymethyl)cyclopropyl]methoxy}-5-methylphenyl)-5-methyl-4,5-dihydro-2H-pyridazin-3-one], which IC50 (Homo sapiens, 72 h) is on record?
**A.** 2.2 nM

**Q.** CC1CC(=O)NN=C1c1ccc(OC[C@H]2C[C@@H]2CO)c(Cl)c1F (relative stereo) [Example 156, 6-(3-Chloro-2-fluoro-4-{[(1S*,2S*)-2-(hydroxymethyl)cyclopropyl]methoxy}phenyl)-5-methyl-4,5-dihydro-2H-pyridazin-3-one] was tested. Which IC50 did it give?
**A.** 2.9 nM

**Q.** With CC1CC(=O)NN=C1c1cc(Cl)c(OCC(C)(C)O)c(Br)c1 (centres unmarked) [Example 1, 6-[3-bromo-5-chloro-4-(2-hydroxy-2-methylpropoxy)phenyl]-5-methyl-4,5-dihydro-2H-pyridazin-3-one] as the molecule, how does the IC50 (Homo sapiens, 72 h) read?
**A.** 1.1 nM

**Q.** With CC1CC(=O)NN=C1c1cc(Cl)c(OCC(C)(C)O)c(Cl)c1 (centres unmarked) [Example 2, 6-[3,5-dichloro-4-(2-hydroxy-2-methylpropoxy)phenyl]-5-methyl-4,5-dihydro-2H-pyridazin-3-one] as the molecule, how does the IC50 (Homo sapiens, 72 h) read?
**A.** 1 nM

**Q.** With CC1CC(=O)NN=C1c1cc(F)c(OCC(C)(C)CO)c(F)c1 (centres unmarked) [Example 6, 6-[3,5-Difluoro-4-(3-hydroxy-2,2-dimethylpropoxy)phenyl]-5-methyl-4,5-dihydro-2H-pyridazin-3-one] as the molecule, how does the IC50 (Homo sapiens, 72 h) read?
**A.** 3.8 nM

**Q.** With CC1CC(=O)NN=C1c1cc(F)c(OCC(C)(C)CO)c(Cl)c1 (centres unmarked) [Example 7, 6-[3-chloro-5-fluoro-4-(3-hydroxy-2,2-dimethylpropoxy)phenyl]-5-methyl-4,5-dihydro-2H-pyridazin-3-one] as the molecule, how does the IC50 (Homo sapiens, 72 h) read?
**A.** 1 nM

**Q.** Cc1c(OCC(C)(C)CO)ccc(C2=NNC(=O)CC2C)c1F (centres unmarked) [Example 8, 6-[2-Fluoro-4-(3-hydroxy-2,2-dimethylpropoxy)-3-methylphenyl]-5-methyl-4,5-dihydro-2H-pyridazin-3-one] was tested. Which IC50 (Homo sapiens, 72 h) did it give?
**A.** 7.9 nM

**Q.** With CC1CC(=O)NN=C1c1ccc(OCC(C)(C)CO)c(F)c1F (centres unmarked) [Example 9, 6-[2,3-Difluoro-4-(3-hydroxy-2,2-dimethylpropoxy)phenyl]-5-methyl-4,5-dihydro-2H-pyridazin-3-one] as the molecule, how does the IC50 (Homo sapiens, 72 h) read?
**A.** 4.2 nM

**Q.** Which IC50 (Homo sapiens, 72 h) does the source give for CC1CC(=O)NN=C1c1ccc(OCCCO)c(F)c1F (centres unmarked) [Example 10, 6-[2,3-Difluoro-4-(3-hydroxypropoxy)phenyl]-5-methyl-4,5-dihydro-2H-pyridazin-3-one] here?
**A.** 3.7 nM

**Q.** CC1CC(=O)NN=C1c1cc(F)c(OCCCO)c(Br)c1 (centres unmarked) [Example 11, 6-[3-Bromo-5-fluoro-4-(3-hydroxypropoxy)phenyl]-5-methyl-4,5-dihydro-2H-pyridazin-3-one] was tested. Which IC50 (Homo sapiens, 72 h) did it give?
**A.** 3 nM

**Q.** Which IC50 (Homo sapiens, 72 h) does the source give for CC1CC(=O)NN=C1c1ccc(OCCCO)c(Br)c1F (centres unmarked) [Example 12, 6-[3-bromo-2-fluoro-4-(3-hydroxypropoxy)phenyl]-5-methyl-4,5-dihydro-2H-pyridazin-3-one] here?
**A.** 1.9 nM

**Q.** How did the IC50 (Homo sapiens, 72 h) turn out when Cc1cc(C2=NNC(=O)CC2C)cc(C)c1OCCCO (centres unmarked) [Example 14, 6-[4-(3-Hydroxypropoxy)-3,5-dimethylphenyl]-5-methyl-4,5-dihydro-2H-pyridazin-3-one] was run?
**A.** 8 nM

**Q.** Which IC50 (Homo sapiens, 72 h) does the source give for CC1CC(=O)NN=C1c1cc(F)c(OCCCO)c(Cl)c1 (centres unmarked) [Example 15, 6-[3-Chloro-5-fluoro-4-(3-hydroxypropoxy)phenyl]-5-methyl-4,5-dihydro-2H-pyridazin-3-one] here?
**A.** 4 nM

**Q.** For CC1CC(=O)NN=C1c1cc(Cl)c(OCCCO)c(Cl)c1 (centres unmarked) [Example 16, 6-[3,5-Dichloro-4-(3-hydroxypropoxy)phenyl]-5-methyl-4,5-dihydro-2H-pyridazin-3-one], which IC50 (Homo sapiens, 72 h) is on record?
**A.** 3.6 nM

**Q.** CC1CC(=O)NN=C1c1ccc(OCCCO)c(Cl)c1F (centres unmarked) [Example 19, 6-[3-chloro-2-fluoro-4-(3-hydroxypropoxy)phenyl]-5-methyl-4,5-dihydro-2H-pyridazin-3-one] was tested. Which IC50 (Homo sapiens, 72 h) did it give?
**A.** 1.3 nM

**Q.** For Cc1cc(C2=NNC(=O)CC2C)cc(F)c1OCCCO (centres unmarked) [Example 20, 6-[3-Fluoro-4-(3-hydroxypropoxy)-5-methylphenyl]-5-methyl-4,5-dihydro-2H-pyridazin-3-one], which IC50 (Homo sapiens, 72 h) is on record?
**A.** 4.2 nM

**Q.** With Cc1c(OCCCO)ccc(C2=NNC(=O)CC2C)c1F (centres unmarked) [Example 21, 6-[2-Fluoro-4-(3-hydroxypropoxy)-3-methylphenyl]-5-methyl-4,5-dihydro-2H-pyridazin-3-one] as the molecule, how does the IC50 (Homo sapiens, 72 h) read?
**A.** 4 nM

**Q.** Which IC50 (Homo sapiens, 72 h) does the source give for Cc1cc(C2=NNC(=O)CC2C)c(F)c(Cl)c1OCCCO (centres unmarked) [Example 22, 6-[3-chloro-2-fluoro-4-(3-hydroxypropoxy)-5-methylphenyl]-5-methyl-4,5-dihydro-2H-pyridazin-3-one] here?
**A.** 1.9 nM

**Q.** With CCc1c(OCCCO)ccc(C2=NNC(=O)CC2C)c1F (centres unmarked) [Example 23, 6-[3-Ethyl-2-fluoro-4-(3-hydroxypropoxy)phenyl]-5-methyl-4,5-dihydro-2H-pyridazin-3-one] as the molecule, how does the IC50 (Homo sapiens, 72 h) read?
**A.** 8 nM

**Q.** How did the IC50 (Homo sapiens, 72 h) turn out when CC1CC(=O)NN=C1c1ccc(OCC(C)(C)O)c(Br)c1F (centres unmarked) [Example 24, 6-[3-bromo-2-fluoro-4-(2-hydroxy-2-methylpropoxy)phenyl]-5-methyl-4,5-dihydro-2H-pyridazin-3-one] was run?
**A.** 1.7 nM

**Q.** With CC1CC(=O)NN=C1c1cc(F)c(OCC(C)(C)O)c(Cl)c1 (centres unmarked) [Example 25, 6-[3-Chloro-5-fluoro-4-(2-hydroxy-2-methylpropoxy)phenyl]-5-methyl-4,5-dihydro-2H-pyridazin-3-one] as the molecule, how does the IC50 (Homo sapiens, 72 h) read?
**A.** 2.6 nM

**Q.** CC1CC(=O)NN=C1c1cc(F)c(OCC(C)(C)O)c(Br)c1 (centres unmarked) [Example 26, 6-[3-bromo-5-fluoro-4-(2-hydroxy-2-methylpropoxy)phenyl]-5-methyl-4,5-dihydro-2H-pyridazin-3-one] was tested. Which IC50 (Homo sapiens, 72 h) did it give?
**A.** 2 nM

**Q.** How did the IC50 (Homo sapiens, 72 h) turn out when Cc1c(OCC(C)(C)O)ccc(C2=NNC(=O)CC2C)c1O (centres unmarked) [Example 28, 6-[2-Hydroxy-4-(2-hydroxy-2-methylpropoxy)-3-methylphenyl]-5-methyl-4,5-dihydro-2H-pyridazin-3-one] was run?
**A.** 6.3 nM

**Q.** Which IC50 (Homo sapiens, 72 h) does the source give for Cc1cc(C2=NNC(=O)CC2C)cc(Cl)c1OCC(C)(C)O (centres unmarked) [Example 31, 6-[3-chloro-4-(2-hydroxy-2-methylpropoxy)-5-methylphenyl]-5-methyl-4,5-dihydro-2H-pyridazin-3-one] here?
**A.** 1.1 nM

**Q.** With Cc1cc(C2=NNC(=O)CC2C)cc(C)c1OCC(C)(C)O (centres unmarked) [Example 32, 6-[4-(2-Hydroxy-2-methylpropoxy)-3,5-dimethylphenyl]-5-methyl-4,5-dihydro-2H-pyridazin-3-one] as the molecule, how does the IC50 (Homo sapiens, 72 h) read?
**A.** 4 nM

**Q.** Cc1cc(C2=NNC(=O)CC2C)cc(F)c1OCC(C)(C)O (centres unmarked) [Example 33, 6-[3-Fluoro-4-(2-hydroxy-2-methylpropoxy)-5-methylphenyl]-5-methyl-4,5-dihydro-2H-pyridazin-3-one] was tested. Which IC50 (Homo sapiens, 72 h) did it give?
**A.** 5.1 nM

**Q.** With Cc1c(OCC(C)(C)O)ccc(C2=NNC(=O)CC2C)c1F (centres unmarked) [Example 34, 6-[2-Fluoro-4-(2-hydroxy-2-methylpropoxy)-3-methylphenyl]-5-methyl-4,5-dihydro-2H-pyridazin-3-one] as the molecule, how does the IC50 (Homo sapiens, 72 h) read?
**A.** 5.2 nM

**Q.** With Cc1c(F)c(C2=NNC(=O)CC2C)cc(Cl)c1OCC(C)(C)O (centres unmarked) [Example 35, 6-[5-Chloro-2-fluoro-4-(2-hydroxy-2-methylpropoxy)-3-methylphenyl]-5-methyl-4,5-dihydro-2H-pyridazin-3-one] as the molecule, how does the IC50 (Homo sapiens, 72 h) read?
**A.** 6.3 nM

**Q.** With Cc1cc(C2=NNC(=O)CC2C)c(F)c(Cl)c1OCC(C)(C)O (centres unmarked) [Example 36, 6-[3-chloro-2-fluoro-4-(2-hydroxy-2-methylpropoxy)-5-methylphenyl]-5-methyl-4,5-dihydro-2H-pyridazin-3-one] as the molecule, how does the IC50 (Homo sapiens, 72 h) read?
**A.** 1 nM

**Q.** CC1CC(=O)NN=C1c1cc(F)c(OCC(O)(C(F)(F)F)C(F)(F)F)c(Cl)c1 (centres unmarked) [Example 37, 6-{3-Chloro-5-fluoro-4-[3,3,3-trifluoro-2-hydroxy-2-(trifluoromethyl)propoxy]phenyl}-5-methyl-4,5-dihydro-2H-pyridazin-3-one] was tested. Which IC50 (Homo sapiens, 72 h) did it give?
**A.** 8.8 nM

**Q.** How did the IC50 (Homo sapiens, 72 h) turn out when CC1CC(=O)NN=C1c1cc(F)c(OCC(O)(C(F)(F)F)C(F)(F)F)c(Br)c1 (centres unmarked) [Example 38, 6-{3-Bromo-5-fluoro-4-[3,3,3-trifluoro-2-hydroxy-2-(trifluoromethyl)propoxy]phenyl}-5-methyl-4,5-dihydro-2H-pyridazin-3-one] was run?
**A.** 5.2 nM

**Q.** For Cc1cc(C2=NNC(=O)CC2C)cc(Cl)c1OC[C@H](C)O (stereo partly drawn) [Example 39, 6-{3-Chloro-4-[(2S)-2-hydroxypropoxy]-5-methylphenyl}-5-methyl-4,5-dihydro-2H-pyridazin-3-one], which IC50 (Homo sapiens, 72 h) is on record?
**A.** 2.8 nM

**Q.** How did the IC50 (Homo sapiens, 72 h) turn out when Cc1cc(C2=NNC(=O)CC2C)cc(Cl)c1OC[C@@H](C)O (stereo partly drawn) [Example 40, 6-{3-chloro-4-[(2R)-2-hydroxypropoxy]-5-methylphenyl}-5-methyl-4,5-dihydro-2H-pyridazin-3-one] was run?
**A.** 1.6 nM

**Q.** Cc1cc(C2=NNC(=O)CC2C)cc(C)c1OCC1(O)CC1 (centres unmarked) [Example 43, 6-{4-[(1-Hydroxycyclopropyl)methoxy]-3,5-dimethylphenyl}-5-methyl-4,5-dihydro-2H-pyridazin-3-one] was tested. Which IC50 (Homo sapiens, 72 h) did it give?
**A.** 4.3 nM
